Values quoted from earlier work, collected in PubChem BioAssay AID1259409 (Chemical Carcinogenesis Research Information System (CCRIS), 2018).

System: rodent chemically induced tumor inhibition, incidence and multiplicity
Assay: CCRIS tumor inhibitor studies
Settings: Dose [Inhibitor]: 0

In the case of `C=C1C/C(=C/C)C(=O)O[C@@H]2CCN3CC=C(COC(=O)[C@@]1(O)CO)[C@H]23`, the “tumour outcome (control, treated, inhibition, significance)” value (1 MG/KG IN 0.1 M PHOSPHATE BUFFER 5 D/WK FOR 105 WK (STUDY DURATION: 105 EK), Route [Inhibitor]: GAVAGE, Species: MOUSE, Strain/Sex: B6C3F1/MALE, Target Tissue: Type of Lesion: LIVER: HEPATOCELLULAR ADENOMA OR CARCINOMA) is listed as 36/50 (72%), 23/50 (46%), 36%, p<0.05 and the “tumour outcome (control, treated, inhibition, significance)” value (3 MG/KG IN 0.1 M PHOSPHATE BUFFER 5 D/WK FOR 105 WK (STUDY DURATION: 105 WK), Route [Inhibitor]: GAVAGE, Species: MOUSE, Strain/Sex: B6C3F1/FEMALE, Target Tissue: Type of Lesion: LIVER: HEPATOCELLULAR ADENOMA OR CARCINOMA) is listed as 16/49 (33%), 0/50 (0%), 100%, p<0.01.
For `CC1(C)CC[C@]2(C(=O)O)CC[C@]3(C)C(=CC[C@@H]4[C@@]5(C)CC[C@H](O)C(C)(C)[C@@H]5CC[C@]43C)[C@@H]2C1`, the “tumour outcome (control, treated, inhibition, significance)” value (Carcinogen: AZOXYMETHANE, 25843-45-2, 0.02% IN DIET IN WK 1-3 OF STUDY FOLLOWED BY BASAL DIET FOR DURATION OF STUDY (STUDY DURATION: 1 YR), Route [Inhibitor]: ORAL, Species: RAT, Strain/Sex: F344/MALE, Target Tissue: Type of Lesion: LARGE INTESTINE: ADENOCARCINOMA, Dose [Carcinogen]: 15 MG/KG BW 1/WK IN WK 1 AND 2 OF STUDY, Promoter: NONE USED) is given as 13/27 (48%), 6/29 (21%), 56%, not calculated, the “tumour outcome (control, treated, inhibition, significance)” value (Carcinogen: AZOXYMETHANE, 25843-45-2, 0.02% IN DIET IN WK 1-3 OF STUDY FOLLOWED BY BASAL DIET FOR DURATION OF STUDY (STUDY DURATION: 1 YR), Route [Inhibitor]: ORAL, Species: RAT, Strain/Sex: F344/MALE, Target Tissue: Type of Lesion: LARGE INTESTINE: ADENOMA, Dose [Carcinogen]: 15 MG/KG BW 1/WK IN WK 1 AND 2 OF STUDY, Promoter: NONE USED) is given as 6/27 (22%), 8/29 (28%), -27%, not significant and the “tumour outcome (control, treated, inhibition, significance)” value (Carcinogen: AZOXYMETHANE, 25843-45-2, 0.02% IN DIET IN WK 1-3 OF STUDY FOLLOWED BY BASAL DIET FOR DURATION OF STUDY (STUDY DURATION: 1 YR), Route [Inhibitor]: ORAL, Species: RAT, Strain/Sex: F344/MALE, Target Tissue: Type of Lesion: SMALL INTESTINE: ADENOCARCINOMA, Dose [Carcinogen]: 15 MG/KG BW 1/WK IN WK 1 AND 2 OF STUDY, Promoter: NONE USED) is given as 6/27 (22%), 3/29 (10%), 55%, not calculated.
For `Clc1c(Cl)c(Cl)c2c(c1Cl)Oc1c(Cl)c(Cl)c(Cl)c(Cl)c1O2`, the “tumour outcome (control, treated, inhibition, significance)” value (Carcinogen: 7,12-DIMETHYLBENZ[A]ANTHRACENE, 57-97-6, 17 NMOL 2/WK APPLIED 1 HR PRIOR TO EACH PROMOTER DOSE FOR 20 WK (STUDY DURATION: 21 WK), Route [Inhibitor]: DERMAL, Species: MOUSE, Target Tissue: Type of Lesion: SKIN: TUMOR, Dose [Carcinogen]: 390 NMOL ONCE, Promoter: 12-O-TETRADECANOYLPHORBOL-13-ACETATE, 16561-29-8) is given as 100%, 87%, 13%, not calculated.
In the case of `O=C(NC(Cc1cc(=O)[nH]c2ccccc12)C(=O)O)c1ccc(Cl)cc1` (stereo unspecified), the “tumour outcome (control, treated, inhibition, significance)” value (Carcinogen: N-ETHYL-N'-NITRO-N-NITROSOGUANIDINE, 4245-77-6, 20 MG/KG/D IN DIET FOR 16 WK (STUDY DURATION: 16 WK), Route [Inhibitor]: ORAL, Species: MOUSE, Strain/Sex: C57BL/MALE, Target Tissue: Type of Lesion: DUODENUM: TUMOR, Dose [Carcinogen]: 100 MG/L IN DRINKING WATER FOR 4 WK, Promoter: NONE USED) is listed as 22/33 (67%), 18/33 (55%), 18%, not significant, the “tumour outcome (control, treated, inhibition, significance)” value (Carcinogen: N-ETHYL-N'-NITRO-N-NITROSOGUANIDINE, 4245-77-6, 20 MG/KG/D IN DIET FOR DURATION OF STUDY (STUDY DURATION: 16 WK), Route [Inhibitor]: ORAL, Species: MOUSE, Strain/Sex: C57BL/MALE, Target Tissue: Type of Lesion: DUODENUM: TUMOR, Dose [Carcinogen]: 100 MG/L IN DRINKING WATER FOR 4 WK, Promoter: NONE) is listed as 22/33 (67%), 18/31 (58%), 13%, not significant and the “tumour outcome (control, treated, inhibition, significance)” value (Carcinogen: N-ETHYL-N'-NITRO-N-NITROSOGUANIDINE, 4245-77-6, 50 MG/KG/D IN DIET FOR 16 WK (STUDY DURATION: 16 WK), Route [Inhibitor]: ORAL, Species: MOUSE, Strain/Sex: C57BL/MALE, Target Tissue: Type of Lesion: DUODENUM: TUMOR, Dose [Carcinogen]: 100 MG/L IN DRINKING WATER FOR 4 WK, Promoter: NONE USED) is listed as 22/33 (67%), 14/33 (42%), 37%, p<0.05. The “tumour outcome (control, treated, inhibition, significance)” value (Carcinogen: N-ETHYL-N'-NITRO-N-NITROSOGUANIDINE, 4245-77-6, 50 MG/KG/D IN DIET FOR DURATION OF STUDY (STUDY DURATION: 16 WK), Route [Inhibitor]: ORAL, Species: MOUSE, Strain/Sex: C57BL/MALE, Target Tissue: Type of Lesion: DUODENUM: TUMOR, Dose [Carcinogen]: 100 MG/L IN DRINKING WATER FOR 4 WK, Promoter: NONE) was 22/33 (67%), 14/31 (45%), 33%, not significant and the “tumour outcome (control, treated, inhibition, significance)” value (Carcinogen: N-METHYL-N'-NITRO-N-NITROSOGUANIDINE, 70-25-7, 20 MG/KG/D IN DIET FOR 34 WK BEGINNING 10 WK POST FIRST CARCINOGEN DOSE (STUDY DURATION: 44 WK), Route [Inhibitor]: ORAL, Species: RAT, Strain/Sex: WISTAR/MALE, Target Tissue: Type of Lesion: STOMACH: TUMOR, Dose [Carcinogen]: 80 MG/L IN DRINKING WATER FOR 28 WK, Promoter: NONE) was 10/13 (77%), 8/13 (62%), 19%, not significant.
